Results as given in the NIST ThermoML archive (doi:10.1016/j.fluid.2008.03.012).

Settings: 101.33 kPa, Liquid

CCOC(=O)CC(C)=O [ethyl 3-oxobutanoate]
Settings	mass density [kg/m3]
278.15 K	1043.1
288.15 K	1034.5
298.15 K	1023.5
313.15 K	1008
328.15 K	992.1
338.15 K	981.9
348.15 K	971.4
